Key:
[1] = system: MOLT-4; assay: Antiproliferative activity against human Molt/4 cells; type: functional, cell-based
[2] = system: Daudi; assay: Antiproliferative activity against human Daudi cells; type: functional, cell-based
[3] = system: L1210; assay: Antiproliferative activity against mouse L1210 cells; type: functional, cell-based
[4] = system: FM3A; assay: Antiproliferative activity against mouse FM3A cells; type: functional, cell-based
[5] = system: CCRF-CEM; assay: Antiproliferative activity against human CEM cells; type: functional, cell-based
[6] = system: K562; assay: Antiproliferative activity against human K562 cells; type: functional, cell-based
[7] = system: Jurkat; assay: Antiproliferative activity against human Jurkat cells; type: functional, cell-based
[8] = Inhibition of telomerase activity in human melanoma cell extracts
[9] = system: Raji; assay: Antiproliferative activity against human Raji cells; type: functional, cell-based
[10] = system: CCRF-SB; assay: Antiproliferative activity against human CCRF-SB cells; type: functional, cell-based
[11] = system: CCRF-CEM; assay: Antiproliferative activity against human CCRF-CEM cells; type: functional, cell-based
[12] = system: WIL2-NS; assay: Antiproliferative activity against human Wil2-NS cells; type: functional, cell-based

Row | Compound | IC50 [1] [µM] | IC50 [3] [µM] | IC50 [4] [µM] | IC50 [5] [µM] | IC50 [6] [µM] | other results
1 | CC(C)(C)OC(=O)N1CC2CC23C1=CC(=O)c1c3cnn1Cc1ccccc1 (centres undefined) | 8.55 | 2.71 | 18.3 | 6.72 | – | IC50 [2]: 7.52 µM
2 | COc1cc2c(cc1O)N=C[C@@H]1CCCN1C2=O | – | – | – | – | 1 | IC50 [7]: 2.2 µM
3 | COC(=O)C1(O)C(OC)=CC(=O)N1CCCC(=O)Nc1cc(C(=O)Nc2cc(C(=O)Nc3cc(C(=O)NCCCN(C)C)n(C)c3)n(C)c2)n(C)c1 (centres undefined) | – | > 200 | – | – | – | –
4 | Cc1n[nH]c2c1C13CC1CN(C(=O)OC(C)(C)C)C3=CC2=O (centres undefined) | 1.74 | 0.52 | 1.4 | 1.26 | – | IC50 [2]: 0.68 µM
5 | C=C1CC(C)(COc2cc(C(=O)Nc3cc(C(=O)Nc4cc(C(=O)Nc5cc(C(=O)NCCNC(=N)N)n(C)c5)n(C)c4)n(C)c3)n(C)n2)OC1=O (centres undefined) | 12.3 | 9.6 | 42.5 | 15.9 | – | –
6 | C=C1CC(COc2cc(C(=O)Nc3cc(C(=O)Nc4cc(C(=O)Nc5cc(C(=O)NCCNC(=N)N)n(C)c5)n(C)c4)n(C)c3)n(C)n2)(c2ccccc2)OC1=O (centres undefined) | 10.1 | 5.1 | 20.5 | 10 | – | –
7 | Cn1cc(NC(=O)c2cc(NC(=O)c3cc(NC(=O)c4cc(NC(=O)c5cc(NC=O)cn5C)cn4C)cn3C)cn2C)cc1C(=O)NCCC(=N)N | – | – | – | – | – | IC50 [8]: 24 µM
8 | C=C1CC(C)(CCCCCCCOc2cc(C(=O)Nc3cc(C(=O)Nc4cc(C(=O)Nc5cc(C(=O)NCCC(=N)N)n(C)c5)n(C)c4)n(C)c3)n(C)n2)OC1=O (centres undefined) | 71.1 | 26.7 | 63.3 | 35.6 | – | –
9 | Cn1cc(NC(=O)c2cc(NC(=O)c3cc(NC(=O)CCCn4cc(F)c(=O)[nH]c4=O)cn3C)cn2C)cc1C(=O)NCCC(=N)N | – | – | – | – | 82 | –
10 | C=C1CC(C)(COc2cc(C(=O)Nc3cc(C(=O)Nc4cc(C(=O)NCCC(=N)N)n(C)c4)n(C)c3)n(C)n2)OC1=O (centres undefined) | 6.8 | 8.02 | 27.6 | 9.6 | – | –
11 | C=C1CC(C)(CCCOc2cc(C(=O)Nc3cc(C(=O)Nc4cc(C(=O)Nc5cc(C(=O)NCCC(=N)N)n(C)c5)n(C)c4)n(C)c3)n(C)n2)OC1=O (centres undefined) | 254 | 195 | 243 | 255 | – | –
12 | C=C1CC(C)(COc2cc(C(=O)Nc3cc(C(=O)Nc4cc(C(=O)Nc5cc(C(=O)NCCC(=N)N)n(C)c5)n(C)c4)n(C)c3)n(C)n2)OC1=O (centres undefined) | 14.7 | 14.7 | 49 | 15.9 | – | –
13 | C=C1CC(COc2cc(C(=O)Nc3cc(C(=O)Nc4cc(C(=O)Nc5cc(C(=O)NCCC(=N)N)n(C)c5)n(C)c4)n(C)c3)n(C)n2)(c2ccc(Cl)cc2)OC1=O (centres undefined) | 79.1 | 25.2 | 64.7 | 86.3 | – | –
14 | C=C1CC(COc2cc(C(=O)Nc3cc(C(=O)Nc4cc(C(=O)Nc5cc(C(=O)NCCC(=N)N)n(C)c5)n(C)c4)n(C)c3)n(C)n2)(c2ccccc2)OC1=O (centres undefined) | 5.2 | 4.2 | 17.5 | 9.7 | – | –
15 | Cn1cc(NC(=O)c2cc(NC(=O)c3cc(NC(=O)CCn4cc(F)c(=O)[nH]c4=O)cn3C)cn2C)cc1C(=O)NCCC(=N)N | – | – | – | – | 23 | –
16 | Cn1cc(NC(=O)c2cc(NC(=O)c3cc(NC(=O)CCCCCCn4cc(F)c(=O)[nH]c4=O)cn3C)cn2C)cc1C(=O)NCCC(=N)N | – | – | – | – | 50 | –
17 | COc1cc2c(cc1OCCC(=O)Nc1cc(C(=O)NCCC(=N)N)n(C)c1)N=C[C@@H]1CCCN1C2=O | – | – | – | – | > 100 | –
18 | C=C1CC(C)(CCCCCOc2cc(C(=O)Nc3cc(C(=O)Nc4cc(C(=O)Nc5cc(C(=O)NCCC(=N)N)n(C)c5)n(C)c4)n(C)c3)n(C)n2)OC1=O (centres undefined) | 106 | 109 | 92 | 74.3 | – | –
19 | C=C1CC(C)(COc2cc(C(=O)Nc3cc(C(=O)NCCC(=N)N)n(C)c3)n(C)n2)OC1=O (centres undefined) | 22.3 | 24.3 | 32.4 | 26.3 | – | –
20 | Cn1cc(NC(=O)c2cc(NC(=O)c3cc(NC(=O)Cn4cc(F)c(=O)[nH]c4=O)cn3C)cn2C)cc1C(=O)NCCC(=N)N | – | – | – | – | > 200 | –
21 | C=C1CC(COc2cc(C(=O)Nc3cc(C(=O)Nc4cc(C(=O)NCCC(=N)N)n(C)c4)n(C)c3)n(C)n2)(c2ccccc2)OC1=O (centres undefined) | 4.6 | 4.1 | 18.5 | 5.7 | – | –
22 | C=C1CC(COc2cc(C(=O)Nc3cc(C(=O)Nc4cc(C(=O)Nc5cc(C(=O)NCCC(=N)N)n(C)c5)n(C)c4)n(C)c3)n(C)n2)(c2ccc(-c3ccccc3)cc2)OC1=O (centres undefined) | 65.3 | 33.2 | 21.8 | 95 | – | –
23 | C=C1CC(COc2cc(C(=O)Nc3cc(C(=O)NCCC(=N)N)n(C)c3)n(C)n2)(c2ccccc2)OC1=O (centres undefined) | 15.8 | 12.5 | 36.3 | 18.9 | – | –
24 | Cn1cc(NC(=O)c2cc(NC(=O)c3cc(NC(=O)[C@@H](N)CS)cn3C)cn2C)cc1C(=O)NCCC(=N)N | 35.8 | – | – | – | 24.2 | IC50 [9]: 45 µM; IC50 [10]: 92 µM; IC50 [11]: 36.7 µM; IC50 [12]: 98 µM
25 | Cn1cc(NC(=O)c2cc(NC(=O)c3cc(NC(=O)C(N)CN)cn3C)cn2C)cc1C(=O)NCCC(=N)N (centres undefined) | 38.8 | – | – | – | 21.7 | IC50 [9]: 42.8 µM; IC50 [10]: 97 µM; IC50 [11]: 40.6 µM; IC50 [12]: 108 µM
26 | Cn1cc(NC(=O)c2cc(NC(=O)c3cc(NC(=O)CCCCn4cc(F)c(=O)[nH]c4=O)cn3C)cn2C)cc1C(=O)NCCC(=N)N | – | – | – | – | 153 | –
27 | Cn1cc(NC(=O)c2cc(NC(=O)c3cc(NC(=O)CCCCCn4cc(F)c(=O)[nH]c4=O)cn3C)cn2C)cc1C(=O)NCCC(=N)N | – | – | – | – | 50 | –
28 | Cn1cc(NC(=O)c2cc(NC(=O)c3cc(NC=O)cn3C)cn2C)cc1C(=O)NCCC(=N)N [STALLIMYCIN] | 64.6 | 133 | 150 | 113 | – | –

From ChEMBL document CHEMBL1140595, “Hybrid molecules between distamycin A and active moieties of antitumor agents” (Bioorg Med Chem, 2007)
